Data as given in PMC12677699, “Utilizing Proteolytic‐Resistant Nano‐Short Peptide Based on Naphthyl Tail‐Anchored to Combat Bacterial Infections” (Advanced Science, 2025).
≈ marks a conversion by molar mass, not a printed value. Non-standard residues stand in square brackets, D forms with d. Residues, ends and D or L forms follow the SMILES beside them. ξ: configuration not given here. *: point of attachment. 1Naphthoyl = O=C(c1cccc2ccccc12)*; Palmitoyl = CCCCCCCCCCCCCCCC(=O)*; Myristoyl = CCCCCCCCCCCCCC(=O)*; Lauroyl = CCCCCCCCCCCC(=O)*; Decanoyl = CCCCCCCCCC(=O)*; ξAhp(2) = CCCCCC(N)C(=O)O

Experiments:
[1] = test system: E. coli UB1005; assay type: cell-based, Escherichia coli
Experimental: (§1) The MIC values of the nano‐short peptides were determined according to standard protocols.^[ [63] ^] Bacterial strains were revived from cryopreservation and cultured in Mueller–Hinton broth (MHB) to logarithmic growth phase, then diluted to a final density of 0.5–1 × 10⁶ CFU mL^−1. Serial dilutions of the nano‐short peptides were prepared in 0.2% bovine serum albumin (BSA) using a 96‐well plate format. Equal volumes of peptide solutions and bacterial suspensions were combined and incubated at 37 °C for 20–22 h. Bacterial growth was assessed by measuring absorbance at 492 nm, with MHB alone (negative control) and untreated bacterial suspension (positive control) included for reference.

[2] = test system: E. coli 078; assay type: cell-based, Escherichia coli
Experimental: as §1

[3] = test system: E. coli 25922; assay type: cell-based, Escherichia coli
Experimental: as §1

[4] = test system: S. typhimurium 7731; assay type: cell-based, Salmonella typhimurium
Experimental: as §1

[5] = test system: S. typhimurium 14028; assay type: cell-based, Salmonella typhimurium
Experimental: as §1

[6] = test system: E. faecalis 29212; assay type: cell-based, Enterococcus faecalis
Experimental: as §1

[7] = test system: P. aeruginosa PAO1; assay type: cell-based, Pseudomonas aeruginosa
Experimental: as §1

[8] = test system: P. aeruginosa 27853; assay type: cell-based, Pseudomonas aeruginosa
Experimental: as §1

[9] = test system: S. epidermidis 12228; assay type: cell-based, Staphylococcus epidermidis
Experimental: as §1

[10] = test system: MRSA 43300; assay type: cell-based, Methicillin-Resistant Staphylococcus aureus
Experimental: as §1

[11] = test system: S. aureus 29213; assay type: cell-based, Staphylococcus aureus
Experimental: as §1

[12] = test system: S. aureus 25923; assay type: cell-based, Staphylococcus aureus
Experimental: as §1

[13] = test system: S. pullorum C7913; assay type: cell-based
Experimental: as §1

SMILES	MIC, E. coli UB1005 [1] [µM]	MIC, E. coli 078 [2] [µM]	MIC, E. coli 25922 [3] [µM]	MIC, S. typhimurium 7731 [4] [µM]	MIC, S. typhimurium 14028 [5] [µM]	MIC, E. faecalis 29212 [6] [µM]	MIC, P. aeruginosa PAO1 [7] [µM]	MIC, P. aeruginosa 27853 [8] [µM]	MIC, S. epidermidis 12228 [9] [µM]	MIC, MRSA 43300 [10] [µM]	MIC, S. aureus 29213 [11] [µM]	MIC, S. aureus 25923 [12] [µM]	MIC, S. pullorum C7913 [13] [µM]
N=C(N)NCCC[C@H](NC(=O)c1cccc2ccccc12)C(=O)N[C@H](CCCNC(=N)N)C(=O)N[C@@H](CCCNC(=N)N)C(=O)N1CCC[C@H]1C(=O)O [Nap] (1Naphthoyl-R[dR]RP-OH)	256 (≈ 189 µg/mL)	256 (≈ 189 µg/mL)	256 (≈ 189 µg/mL)	256 (≈ 189 µg/mL)	256 (≈ 189 µg/mL)	256 (≈ 189 µg/mL)	256 (≈ 189 µg/mL)	256 (≈ 189 µg/mL)	256 (≈ 189 µg/mL)	256 (≈ 189 µg/mL)	256 (≈ 189 µg/mL)	256 (≈ 189 µg/mL)	256 (≈ 189 µg/mL)
C[C@H](N)C(=O)N[C@@H](C)C(=O)N[C@@H](C)C(=O)N[C@H](CCCNC(=N)N)C(=O)N[C@@H](CCCNC(=N)N)C(=O)N[C@@H](CCCNC(=N)N)C(=O)N1CCC[C@H]1C(=O)O [Peptide A3] (H-AAA[dR]RRP-OH)	256 (≈ 204 µg/mL)	256 (≈ 204 µg/mL)	256 (≈ 204 µg/mL)	256 (≈ 204 µg/mL)	256 (≈ 204 µg/mL)	256 (≈ 204 µg/mL)	256 (≈ 204 µg/mL)	256 (≈ 204 µg/mL)	256 (≈ 204 µg/mL)	256 (≈ 204 µg/mL)	256 (≈ 204 µg/mL)	256 (≈ 204 µg/mL)	256 (≈ 204 µg/mL)
C[C@H](N)C(=O)N[C@@H](C)C(=O)N[C@@H](C)C(=O)N[C@@H](C)C(=O)N[C@H](CCCNC(=N)N)C(=O)N[C@@H](CCCNC(=N)N)C(=O)N[C@@H](CCCNC(=N)N)C(=O)N1CCC[C@H]1C(=O)O [Peptide A4] (H-AAAA[dR]RRP-OH)	256 (≈ 222 µg/mL)	256 (≈ 222 µg/mL)	256 (≈ 222 µg/mL)	256 (≈ 222 µg/mL)	256 (≈ 222 µg/mL)	256 (≈ 222 µg/mL)	256 (≈ 222 µg/mL)	256 (≈ 222 µg/mL)	256 (≈ 222 µg/mL)	256 (≈ 222 µg/mL)	256 (≈ 222 µg/mL)	256 (≈ 222 µg/mL)	256 (≈ 222 µg/mL)
C[C@H](N)C(=O)N[C@@H](C)C(=O)N[C@@H](C)C(=O)N[C@@H](C)C(=O)N[C@@H](C)C(=O)N[C@H](CCCNC(=N)N)C(=O)N[C@@H](CCCNC(=N)N)C(=O)N[C@@H](CCCNC(=N)N)C(=O)N1CCC[C@H]1C(=O)O [Peptide A5] (H-AAAAA[dR]RRP-OH)	256 (≈ 240 µg/mL)	256 (≈ 240 µg/mL)	256 (≈ 240 µg/mL)	256 (≈ 240 µg/mL)	256 (≈ 240 µg/mL)	256 (≈ 240 µg/mL)	256 (≈ 240 µg/mL)	256 (≈ 240 µg/mL)	256 (≈ 240 µg/mL)	256 (≈ 240 µg/mL)	256 (≈ 240 µg/mL)	256 (≈ 240 µg/mL)	256 (≈ 240 µg/mL)
C[C@H](N)C(=O)N[C@@H](C)C(=O)N[C@@H](C)C(=O)N[C@@H](C)C(=O)N[C@@H](C)C(=O)N[C@@H](C)C(=O)N[C@H](CCCNC(=N)N)C(=O)N[C@@H](CCCNC(=N)N)C(=O)N[C@@H](CCCNC(=N)N)C(=O)N1CCC[C@H]1C(=O)O [Peptide A6] (H-AAAAAA[dR]RRP-OH)	256 (≈ 259 µg/mL)	256 (≈ 259 µg/mL)	256 (≈ 259 µg/mL)	256 (≈ 259 µg/mL)	256 (≈ 259 µg/mL)	256 (≈ 259 µg/mL)	256 (≈ 259 µg/mL)	256 (≈ 259 µg/mL)	256 (≈ 259 µg/mL)	256 (≈ 259 µg/mL)	256 (≈ 259 µg/mL)	256 (≈ 259 µg/mL)	256 (≈ 259 µg/mL)
CCCCCC(N)C(=O)NC(CCCCC)C(=O)NC(CCCCC)C(=O)N[C@H](CCCNC(=N)N)C(=O)N[C@@H](CCCNC(=N)N)C(=O)N[C@@H](CCCNC(=N)N)C(=O)N1CCC[C@H]1C(=O)O (stereo partly shown) [Peptide B3] (H-[ξAhp(2)][ξAhp(2)][ξAhp(2)][dR]RRP-OH; N-terminus assumed)	256 (≈ 247 µg/mL)	256 (≈ 247 µg/mL)	256 (≈ 247 µg/mL)	256 (≈ 247 µg/mL)	256 (≈ 247 µg/mL)	256 (≈ 247 µg/mL)	256 (≈ 247 µg/mL)	256 (≈ 247 µg/mL)	256 (≈ 247 µg/mL)	256 (≈ 247 µg/mL)	256 (≈ 247 µg/mL)	256 (≈ 247 µg/mL)	256 (≈ 247 µg/mL)
CCCCCCCCCC(=O)N[C@H](CCCNC(=N)N)C(=O)N[C@@H](CCCNC(=N)N)C(=O)N[C@@H](CCCNC(=N)N)C(=O)N1CCC[C@H]1C(=O)O [Peptide C10] (Decanoyl-[dR]RRP-OH)	256 (≈ 189 µg/mL)	256 (≈ 189 µg/mL)	256 (≈ 189 µg/mL)	256 (≈ 189 µg/mL)	256 (≈ 189 µg/mL)	256 (≈ 189 µg/mL)	256 (≈ 189 µg/mL)	256 (≈ 189 µg/mL)	128 (≈ 94.5 µg/mL)	128 (≈ 94.5 µg/mL)	256 (≈ 189 µg/mL)	256 (≈ 189 µg/mL)	256 (≈ 189 µg/mL)
CCCCCCCCCCCC(=O)N[C@H](CCCNC(=N)N)C(=O)N[C@@H](CCCNC(=N)N)C(=O)N[C@@H](CCCNC(=N)N)C(=O)N1CCC[C@H]1C(=O)O [Peptide C12] (Lauroyl-[dR]RRP-OH)	256 (≈ 196 µg/mL)	128 (≈ 98 µg/mL)	128 (≈ 98 µg/mL)	128 (≈ 98 µg/mL)	128 (≈ 98 µg/mL)	64 (≈ 49 µg/mL)	64 (≈ 49 µg/mL)	128 (≈ 98 µg/mL)	64 (≈ 49 µg/mL)	32 (≈ 24.5 µg/mL)	64 (≈ 49 µg/mL)	64 (≈ 49 µg/mL)	128 (≈ 98 µg/mL)
CCCCCCCCCCCCCC(=O)N[C@H](CCCNC(=N)N)C(=O)N[C@@H](CCCNC(=N)N)C(=O)N[C@@H](CCCNC(=N)N)C(=O)N1CCC[C@H]1C(=O)O [Peptide C14] (Myristoyl-[dR]RRP-OH)	128 (≈ 102 µg/mL)	64 (≈ 50.8 µg/mL)	64 (≈ 50.8 µg/mL)	64 (≈ 50.8 µg/mL)	128 (≈ 102 µg/mL)	32 (≈ 25.4 µg/mL)	32 (≈ 25.4 µg/mL)	64 (≈ 50.8 µg/mL)	32 (≈ 25.4 µg/mL)	16 (≈ 12.7 µg/mL)	32 (≈ 25.4 µg/mL)	32 (≈ 25.4 µg/mL)	64 (≈ 50.8 µg/mL)
CCCCCCCCCCCCCCCC(=O)N[C@H](CCCNC(=N)N)C(=O)N[C@@H](CCCNC(=N)N)C(=O)N[C@@H](CCCNC(=N)N)C(=O)N1CCC[C@H]1C(=O)O [Peptide C16] (Palmitoyl-[dR]RRP-OH)						32 (≈ 26.3 µg/mL)	32 (≈ 26.3 µg/mL)		32 (≈ 26.3 µg/mL)	32 (≈ 26.3 µg/mL)	32 (≈ 26.3 µg/mL)	32 (≈ 26.3 µg/mL)	256 (≈ 210 µg/mL)
